Results: patent US6124280A, “Substituted phenols as novel calcium channel blockers” (Warner-Lambert Company, priority 1998, dated 2000)
Counter-ions that a name gives are not always drawn. Positions of bridges follow the written chain, without caps; N, C: chain ends. No end group written: not given here.

Legend:
[1] = molecular target: T1, N-type voltage gated calcium channels (chicken brain synaptosomes) (Gallus gallus, UniProt A0A8V1AJW5); experiment: Chick Whole Brain Synaptosomal ^45 Calcium Flux Assay (inhibition of potassium stimulated calcium influx); format: biochemical; conditions: 20 mM KCl stimulated minus 3 mM KCl basal; 5 min drug pre-incubation, room temperature; 30-second incubation; read-out: Inhibition of ^45 Ca^+2 Influx in Chick Synaptosomes IC50
T1 construct: K+-stimulated 45Ca influx; auxiliary alpha2delta and beta subunits present but not identified
Method: (§1) To measure interaction at the N-type calcium channel and calcium flux inhibition, the effects of the calcium channel blockers were measured in the assays described below.
A compound is assessed at various concentrations for its ability to inhibit this potassium stimulated calcium influx.
One- to five-week old chicks were killed by decapitation and whole brain was removed. The brainstem was discarded, and the remaining brain tissue was placed in ice-cold sucrose buffer (composition: 320 mM sucrose, 5.0 mM TRIS base, 0.1 mM EDTA, pH adjusted to 7.3 with HCl). The total wet weight of pooled brain tissue was determined, and the tissue was homogenized in 10 mL sucrose buffer per gram wet weight. A Potter S-type homogenizer (B. Braun Co.) with a glass tube and teflon pestle was used. Five strokes at 400 rpm were followed by four strokes at 800 rpm. The homogenate was poured into cold centrifuge tubes and centrifuged for 10 minutes at 3000 rpm (1,075 g) in a refrigerated 4° C. RC-5 centrifuge (Sorvall) using an SS-34 rotor. The supernatant was collected and centrifuged at 11,500 rpm (15,800 g) for 10 minutes. The supernatant was discarded, and the pellet was resuspended in 1 mL sucrose buffer. Cold incubation buffer (composition: 1.2 mM MgCl2, 22 mM HEPES, 11 mM glucose, 3 mM KCl, 136 mM choline chloride, pH adjusted to 7.3 with TRIS base) was added slowly to the suspension for a total volume of 30 to 40 mL. This mixture was centrifuged at 7,000 rpm (5,856 g) for 5 minutes. The supernatant was discarded, and the pellet was resuspended in 5 mL of incubation buffer per gram of original wet weight of brain. This synaptosomal suspension was kept on ice until the start of the assay, at which time 35 μL of synaptosome suspension were added to each well of a 96-well filter plate (Millipore) which contained 75 μL incubation buffer with or without drug. Drugs were dissolved in DMSO or H2 O, and the concentration of DMSO was less than or equal to 1%.
Synaptosomes were pre-incubated in the presence or absence of drug for 5 minutes at room temperature before the addition of radioactive calcium. Drugs were present throughout the assay. Two μCi/mL stocks of ^45 CaCl2 were prepared in basal buffer (composition: incubation buffer plus 1 mM CaCl2) and in stimulation buffer (composition: 1.2 mM MgCl2, 22 mM HEPES, 11 mM glucose, 37 mM KCl, 102 mM choline chloride, 1 mM CaCl2, pH adjusted to 7.3 with TRIS base). One hundred microliter of radioactive basal or stimulation buffer were pipetted into a pre-incubated plate of synaptosomes using a Quadra 96 pipetter (Tomtec). The final KCl concentration was 3 mM for the basal condition and 20 mM for the stimulated condition; the final CaCl2 concentration was 0.5 mM with 1 μCi/mL of ^45 CaCl2. The plate was filtered under vacuum after a 30-second incubation with radioactivity. The filters were washed twice with 200 μL of wash buffer (composition: 140 mM choline chloride, 3 mM EGTA, 22 mM HEPES, pH adjusted to 7.3 with TRIS base). Plates were allowed to dry completely. Scintillation fluid was added (20 μL/well), and the plates were counted in a Wallace Microbeta plate counter. Basal ^45 CaCl2 flux (3 mM KCl) was subtracted from stimulated ^45 CaCl2 flux (20 mM KCl) in both control and drug-treated conditions, and data were expressed as percent inhibition of the adjusted control response. Values obtained in this way were plotted as a function of drug concentration and IC50 values were calculated.

[2] = molecular target: T2, N-type calcium channels (IMR-32 cells) (Homo sapiens, UniProt Q00975); experiment: N-type Ca2+ channel blocking potency in IMR-32 cells using fluorescent Ca2+ indicator Indo-1; format: cell-based; conditions: K+ depolarization, 5 μM nitrendipine present to block L-type channels, 10 min at 30° C., read-out: Inhibition of ^45 Ca^+2 Influx in IMR-32 Cells IC50
T2 construct: host or cells: IMR-32, differentiated with dibutyryl cAMP and bromodeoxyuridine
T2 sequence (Q00975 whole entry): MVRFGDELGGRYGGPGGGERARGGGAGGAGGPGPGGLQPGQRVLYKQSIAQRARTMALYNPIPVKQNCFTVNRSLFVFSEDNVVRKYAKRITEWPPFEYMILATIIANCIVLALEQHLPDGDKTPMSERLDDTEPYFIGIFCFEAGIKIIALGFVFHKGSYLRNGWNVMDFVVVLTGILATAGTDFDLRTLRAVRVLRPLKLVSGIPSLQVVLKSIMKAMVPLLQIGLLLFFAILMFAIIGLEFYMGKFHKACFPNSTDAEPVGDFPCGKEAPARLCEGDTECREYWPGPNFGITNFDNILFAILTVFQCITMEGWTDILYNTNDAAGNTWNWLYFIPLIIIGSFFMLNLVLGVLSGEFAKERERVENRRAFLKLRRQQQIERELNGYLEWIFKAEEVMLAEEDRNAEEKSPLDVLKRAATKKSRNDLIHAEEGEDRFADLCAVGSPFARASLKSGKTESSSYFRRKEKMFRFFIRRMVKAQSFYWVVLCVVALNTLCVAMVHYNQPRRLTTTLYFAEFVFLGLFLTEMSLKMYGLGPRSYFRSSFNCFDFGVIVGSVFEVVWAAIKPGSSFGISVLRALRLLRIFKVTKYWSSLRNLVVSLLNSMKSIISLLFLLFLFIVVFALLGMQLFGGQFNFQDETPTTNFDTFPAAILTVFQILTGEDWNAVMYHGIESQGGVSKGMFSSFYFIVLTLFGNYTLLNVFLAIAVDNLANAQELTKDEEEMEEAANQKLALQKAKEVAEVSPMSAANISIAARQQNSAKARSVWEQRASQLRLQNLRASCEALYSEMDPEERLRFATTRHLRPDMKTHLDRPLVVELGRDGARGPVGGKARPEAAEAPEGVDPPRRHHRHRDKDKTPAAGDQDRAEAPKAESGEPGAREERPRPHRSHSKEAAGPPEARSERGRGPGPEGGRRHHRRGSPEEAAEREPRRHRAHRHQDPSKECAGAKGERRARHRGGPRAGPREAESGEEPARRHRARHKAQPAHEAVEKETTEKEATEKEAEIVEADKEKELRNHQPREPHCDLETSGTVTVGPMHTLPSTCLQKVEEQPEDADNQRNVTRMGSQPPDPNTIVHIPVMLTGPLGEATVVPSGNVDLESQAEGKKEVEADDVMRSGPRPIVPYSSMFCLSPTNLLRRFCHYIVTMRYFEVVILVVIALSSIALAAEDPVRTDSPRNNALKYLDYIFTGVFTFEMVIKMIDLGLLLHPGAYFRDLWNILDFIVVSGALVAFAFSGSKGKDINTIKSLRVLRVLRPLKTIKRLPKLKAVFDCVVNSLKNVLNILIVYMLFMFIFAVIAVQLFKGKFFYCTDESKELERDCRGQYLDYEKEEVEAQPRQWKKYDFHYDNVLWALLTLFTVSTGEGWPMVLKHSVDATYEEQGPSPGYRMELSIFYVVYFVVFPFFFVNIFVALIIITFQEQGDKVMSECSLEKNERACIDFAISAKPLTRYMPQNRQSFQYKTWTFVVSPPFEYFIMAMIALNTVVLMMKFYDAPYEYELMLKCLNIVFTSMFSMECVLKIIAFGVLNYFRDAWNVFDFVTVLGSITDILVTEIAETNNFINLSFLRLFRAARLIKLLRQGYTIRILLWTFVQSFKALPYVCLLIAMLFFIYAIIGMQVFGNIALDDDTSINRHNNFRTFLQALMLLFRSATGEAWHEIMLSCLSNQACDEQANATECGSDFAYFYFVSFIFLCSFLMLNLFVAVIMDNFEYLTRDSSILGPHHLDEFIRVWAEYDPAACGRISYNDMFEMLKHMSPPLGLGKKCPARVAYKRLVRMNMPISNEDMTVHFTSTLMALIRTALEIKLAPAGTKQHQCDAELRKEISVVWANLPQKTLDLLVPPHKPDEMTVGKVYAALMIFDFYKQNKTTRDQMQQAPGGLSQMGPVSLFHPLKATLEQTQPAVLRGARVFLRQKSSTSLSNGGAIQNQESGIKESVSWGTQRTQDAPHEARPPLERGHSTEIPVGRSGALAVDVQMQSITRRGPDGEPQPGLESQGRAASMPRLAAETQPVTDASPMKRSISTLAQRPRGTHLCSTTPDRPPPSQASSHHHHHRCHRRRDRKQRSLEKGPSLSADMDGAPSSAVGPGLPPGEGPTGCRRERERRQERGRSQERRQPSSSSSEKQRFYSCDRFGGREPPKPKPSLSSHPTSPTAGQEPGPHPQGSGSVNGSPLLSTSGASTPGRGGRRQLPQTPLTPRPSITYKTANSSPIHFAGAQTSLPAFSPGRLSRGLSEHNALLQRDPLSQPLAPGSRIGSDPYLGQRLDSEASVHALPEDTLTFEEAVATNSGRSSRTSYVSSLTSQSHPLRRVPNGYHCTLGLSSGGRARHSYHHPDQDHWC
T2 sequence (P54289 25-944 partner limits assumed): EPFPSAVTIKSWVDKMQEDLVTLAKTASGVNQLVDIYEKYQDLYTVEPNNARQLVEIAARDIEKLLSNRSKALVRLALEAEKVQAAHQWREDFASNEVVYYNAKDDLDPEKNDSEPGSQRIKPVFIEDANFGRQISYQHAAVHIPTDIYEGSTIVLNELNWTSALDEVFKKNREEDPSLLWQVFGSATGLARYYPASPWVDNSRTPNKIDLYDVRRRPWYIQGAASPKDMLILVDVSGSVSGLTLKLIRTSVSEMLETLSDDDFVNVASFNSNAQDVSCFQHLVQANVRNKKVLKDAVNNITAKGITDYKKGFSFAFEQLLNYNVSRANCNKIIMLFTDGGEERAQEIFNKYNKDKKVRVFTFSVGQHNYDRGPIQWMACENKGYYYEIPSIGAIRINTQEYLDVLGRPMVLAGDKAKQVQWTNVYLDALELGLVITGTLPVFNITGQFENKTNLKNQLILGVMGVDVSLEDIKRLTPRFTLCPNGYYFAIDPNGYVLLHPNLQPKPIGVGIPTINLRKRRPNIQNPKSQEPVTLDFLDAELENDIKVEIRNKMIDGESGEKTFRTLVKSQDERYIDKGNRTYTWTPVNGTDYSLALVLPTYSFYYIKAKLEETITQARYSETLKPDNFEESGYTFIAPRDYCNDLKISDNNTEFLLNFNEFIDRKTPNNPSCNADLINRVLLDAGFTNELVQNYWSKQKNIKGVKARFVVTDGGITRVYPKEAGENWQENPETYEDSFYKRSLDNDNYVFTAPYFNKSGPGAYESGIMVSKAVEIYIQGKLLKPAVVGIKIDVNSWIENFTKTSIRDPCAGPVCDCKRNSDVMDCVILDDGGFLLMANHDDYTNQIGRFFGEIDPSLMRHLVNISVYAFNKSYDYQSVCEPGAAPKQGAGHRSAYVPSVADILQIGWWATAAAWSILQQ
T2 sequence (P54289 945-1103 partner limits assumed): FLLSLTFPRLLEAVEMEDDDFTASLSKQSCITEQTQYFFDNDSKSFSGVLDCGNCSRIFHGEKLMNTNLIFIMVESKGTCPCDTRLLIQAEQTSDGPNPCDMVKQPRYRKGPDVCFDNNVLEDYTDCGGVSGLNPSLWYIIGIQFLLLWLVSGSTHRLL
Method: as §1
IMR-2 cells are a human tumoral cell line of neural origin. […] Calcium flux into these cells may be induced by stimulation with elevated potassium concentrations. The L-channel component of calcium flux may be blocked by adding 5 μM nitrendipine. The remaining component of calcium entry into the IMR-32 cells is due to calcium flux through N-type calcium channels. Intracellular calcium concentrations are measured using the fluorescent calcium indicator Indo-1. The effect of drug concentration on calcium uptake is studied.
The IMR-32 cell line was obtained from the American Type Culture Collection (Rockville, Md.). Cells were grown in Eagle's Minimum Essential Medium with Earle's salts supplemented with 10% fetal bovine serum, 2 mM L-Gln and antibiotic/antimicotic mixture (Gibco). At approximately 80% confluency, differentiation was induced by the addition of 1 mM dibutyryl cAMP and 2.5 μM bromodeoxyuridine to the medium. After 7 to 13 days of differentiation, cells were detached using 0.5 mM EDTA and loaded with 5 μM Indo-1 acetoxymethyl ester (Molecular Probes, Eugene, Or.) at 30° C. for 45 minutes. Loaded cells were washed twice, resuspended (~10^7 cells/mL) in assay buffer (10 mM HEPES/Tris pH 7.4 in Hank's Balanced Salt Solution without bicarbonate or phenol red containing 0.5% bovine serum albumin) and kept on ice until use. Fluorescence measurements were carried out in a Photon Technology International (PTI, South Brunswick, N.J.) Model RF-F3004 spectrofluorometer with dual emission monochromators using excitation at 350 nm and emission at 400 and 490 nm. The instrument was equipped with a thermostatted cuvette holder with stirring capabilities as well as with a computer-controlled pump which allowed for reagent addition during measurement. Instrument control and data collection was done by PTI's OSCAR software running on an IBM compatible computer. Different concentrations of the test compounds (60 μL in dimethyl sulfoxide) were added to 5.94 mL of assay buffer containing approximately 3×10^6 loaded cells, and 5 μM Nitrendipine (in 30 μL EtOH) to block L-type Ca^2+ channels. Samples were incubated for 10 minutes at 30° C. and then aliquoted into three 10×10 mm disposable acrylic cuvettes. Emission signals at 400 and 490 nm were acquired from each cuvette at 30° C. for 50 seconds. At 20 seconds after the start of reading, cells were depolarized by the addition of 160 μL of stimulation solution (1M KCl, 68 mM CaCl2) to the cuvette via the computer-controlled pump. Ratio of dual emission signals (400 nm/490 nm), which is proportional to intracellular Ca^2+ concentration, was plotted against time, and the difference between maximal response after stimulation and basal value (before stimulation) was determined. Values obtained in this way were plotted as a function of drug concentration. IC50 values of test compounds were calculated by fitting a 4-parameter logistic function to the data using the least squares method.

[3] = system: N-type calcium channel; conditions: cited: Bowersox et al. 1994; cited from earlier work

Compound	IC50 [1]	IC50 [2]	activity in a number of models of ischemia and pain [3]
CC(CCC(O)(c1ccccc1)c1ccccc1)(c1ccc(O)c(CN2CCCCCC2)c1)c1ccc(O)c(CN2CCCCCC2)c1 [Example 3, 4,4'-(4-Hydroxy-1-methyl-4,4-diphenylbutylidene)bis[2-[(hexahydro-1H-azepin-1-yl)methyl]phenol] oxalic acid salt]	1400 nM	490 nM	
CC(CCC(c1ccccc1)c1ccccc1)(c1ccc(O)c(CN2CCCCCC2)c1)c1ccc(O)c(CN2CCCCCC2)c1 [Example 6, 4,4'-(1-Methyl-4,4-diphenylbutylidene)bis[2-[(hexahydro-1H-azepin-1-yl)methyl]phenol] oxalic acid salt]	3150 nM	740 nM	
CC(CCCN(Cc1ccccc1)Cc1ccccc1)(c1ccc(O)c(CN2CCCCCC2)c1)c1ccc(O)c(CN2CCCCCC2)c1 [Example 10, 4,4'-[4-[Bis(phenylmethyl)amino]-1-methylbutylidene]-bis[2-[(hexahydro-1H-azepin-1yl)methyl]phenol] oxalic acid salt]	4200 nM	430 nM	
O=C(NCC(c1ccc(O)c(CN2CCCCCC2)c1)c1ccc(O)c(CN2CCCCCC2)c1)c1ccccc1 [Example 19, N-[2,2-Bis-(3-azepan-1-ylmethyl-4-hydroxyphenyl)ethyl]-benzamide oxalic acid salt]	2400 nM	17000 nM	
O=C(NCC(c1ccc(O)c(CN2CCCCCC2)c1)c1ccc(O)c(CN2CCCCCC2)c1)C(c1ccccc1)c1ccccc1 [Example 20, N-[2,2 -Bis-(3-azepan-1-ylmethyl-4-hydroxyphenyl)ethyl]-2,2-diphenylacetamide oxalic acid salt]	2400 nM		
CC(NC(=O)c1ccccc1)C(c1ccc(O)c(CN2CCCCCC2)c1)c1ccc(O)c(CN2CCCCCC2)c1 (stereo not drawn) [Example 21, N-[2,2-Bis-(3-azepan-1-ylmethyl-4-hydroxyphenyl)-1-methylethyl]benzamide oxalic acid salt]	2200 nM	14000 nM	
SNX-111: selective N-type calcium channel blocker, SNX-111 (CKGKGAKCSRLMYDCCTGSCRSGKC-NH2; disulfide 1-16, 15-25, 8-20; UniProt P05484 46-70, looked up)			demonstrated activity
